Earlier results on one compound are cited in patent US20080044496A1, “ARTHRITIS PHYTO-NUTRACEUTICAL SYNERGISTIC COMPOSITION” (priority 2006, published 2008).

For this data set, the system named is human rheumatoid arthritis synoviocytes.

Take `C[C@@H]1CC[C@@]2(OC1)O[C@H]1C[C@H]3[C@@H]4CC=C5C[C@@H](O)CC[C@]5(C)[C@H]4CC[C@]3(C)[C@H]1[C@@H]2C` [diosgenine]: the apoptosis result is on record as “induces apoptosis”.
